Data taken from US20220117938A1, “COMBINATON THERAPY WITH A DON PRODRUG AND AN IMMUNE CHECKPOINT INHIBITOR” (DRACEN PHARMACEUTICALS, INC., priority 2019, published 2022).

Test system: 4T1 tumors
Experiment: Anti-tumor efficacy of Compound 1 with and without anti-PD-1 in the 4T1 murine mammary cancer model (Example 2A)
Format: in vivo, Mus musculus
Details: for Tumor volume (mm^3), Mean ± SEM: n = 8; for ILS (%) / MST: endpoint tumor volume 2000 mm^3; for RTV at day 25 / T/C (%) / TGI (%) / Tumor Size (mm^3) at day 25, Mean ± SEM: day 25
Experimental: Female BALB/c mice were inoculated subcutaneously at the mammary fat pat with 4T1 cells for tumor development. Six days after tumor inoculation, 48 mice with tumor size ranging from 49-88 mm^3 (average tumor size 59 mm^3) were selected and assigned into 6 groups using stratified randomization with 8 mice per group based upon their tumor volumes. The treatments were started from the day of randomization (defined as D0), Group 1 was treated with Vehicle (Tween 80:Ethanol:Saline—5:5:90 v/v/v), s.c. q.d.×14, Group 2 was treated with anti-PD-1 10 mg/kg i.p. q4d×4, Group 3 was treated with Compound 1 3 mg/kg s.c. q.d.×5D followed by 1 mg/kg s.c. q.d.×9D, Group 4 was treated with Compound 13 mg/kg s.c. q.d.×5D followed by 1 mg/kg s.c. q.d.×9D+anti-PD-1 10 mg/kg i.p. q4d×4, Group 5 was treated with Compound 11 mg/kg s.c. q.d.×14D and Group 6 was treated with Compound 11 mg/kg s.c. q.d.×14D+anti-PD-1 10 mg/kg i.p. q4d×4. The tumor sizes were measured three times per week during the treatment. The entire study was terminated on D42 after start of the treatment. In this study anti mPD-1 (catalog number BE0146) was used.
Animal Species: Mus musculus; Strain: BALB/c; Age: 6-8 weeks; Sex: female; Body weight (at treatment start): 20-24 g.
The 4T1 tumor cells were maintained in vitro as a monolayer culture in RPMI-1640 medium supplemented with 10% heat inactivated fetal bovine serum and 100 μg/mL penicillin streptomycin at 37° C. in an atmosphere of 5% CO2 in air. The tumor cells were routinely subcultured twice weekly by trypsin-EDTA treatment. The cells growing to a confluency around 70%-80% were harvested and counted for tumor inoculation. The cultured 4T1 cells were harvested, re-suspended in base medium at a density of 2×10^6 cells/mL with viability >90%. Each mouse was inoculated subcutaneously at the […] with 1×10^5 in 0.05 ml base medium for tumor development.
The treatments were started on day 6 after tumor inoculation when the tumor size reached 49-88 mm^3 (average tumor size 59 mm^3). Each group consisted of 8 tumor bearing mice. The testing article was administrated at the dosing volume indicated to the mice according to the predetermined regimen as shown Table 2A-1. Testing article formulations were prepared according to standard procedures. Details regarding tumor measurements and endpoints, and statistical analysis are provided in EXAMPLE 3.
Tumor sizes were measured three times a week in two dimensions using a caliper, and the volume expressed in mm^3 using the formula: V=0.5 a×b^2 where a and b are the long and short diameters of the tumor, respectively. The tumor sizes were then used for the calculations of both tumor growth inhibition (TGI) and T/C values.
TGI is calculated for each group using the formula: […]
TVTreatment_DayN is the average tumor volume of a treatment group on a given day, TVTreatment_Day0 is the average tumor volume of the treatment group on the first day of treatment, TVVehicle_DayN is the average tumor volume of the vehicle control group on a given day, and TVVehicle_Day0 is the average tumor volume of the vehicle group on the first day of treatment.
The T/C value (in percent) is an indication of antitumor effectiveness, T/C (%)=RTVTreatment/RTVControl×100% (RTVTreatment: the mean RTV of the treatment group; RTVControl: the mean RTV of the vehicle treated group). RTV (relative tumor volume)=TVDayN/TVDay0. TVDayN and TVDay0 is the tumor volume on day N and Day 0 respectively. T/C (%)≤42% is considered as significant antitumor activity and <10% is considered as highly significant antitumor activity by the National Cancer Institute criteria.
Animal survival curve: When an individual animal reached to the termination endpoint (TV>2000 mm^3), the mouse was euthanized. The time from treatment initiation to the termination was deemed as its survival time. Survival curve was plotted by Kaplan-Meier method. Median survival time (MST) was calculated for each group. […]

CC(=O)N[C@@H](Cc1c[nH]c2ccccc12)C(=O)N[C@@H](CCC(=O)C=[N+]=[N-])C(=O)OC(C)C [Compound 1, Isopropyl (S)-2-((S)-2-acetamido-3-(1H-indol-3-yl)propanamido)-6-diazo-5-oxohexanoate]
Tumor volume (mm^3), Mean ± SEM (1 mg/kg qdx14 s.c., Day 0): 58 ± 3 mm^3
Tumor volume (mm^3), Mean ± SEM (1 mg/kg qdx14 s.c., Day 2): 75 ± 4 mm^3
Tumor volume (mm^3), Mean ± SEM (1 mg/kg qdx14 s.c., Day 4): 85 ± 4 mm^3
Tumor volume (mm^3), Mean ± SEM (1 mg/kg qdx14 s.c., Day 7): 108 ± 4 mm^3
Tumor volume (mm^3), Mean ± SEM (1 mg/kg qdx14 s.c., Day 9): 130 ± 10 mm^3
Tumor volume (mm^3), Mean ± SEM (1 mg/kg qdx14 s.c., Day 11): 158 ± 12 mm^3
Tumor volume (mm^3), Mean ± SEM (1 mg/kg qdx14 s.c., Day 14): 172 ± 11 mm^3
Tumor volume (mm^3), Mean ± SEM (1 mg/kg qdx14 s.c., Day 16): 215 ± 17 mm^3
Tumor volume (mm^3), Mean ± SEM (1 mg/kg qdx14 s.c., Day 18): 300 ± 23 mm^3
Tumor volume (mm^3), Mean ± SEM (1 mg/kg qdx14 s.c., Day 21): 441 ± 31 mm^3
Tumor volume (mm^3), Mean ± SEM (1 mg/kg qdx14 s.c., Day 23): 622 ± 44 mm^3
Tumor volume (mm^3), Mean ± SEM (1 mg/kg qdx14 s.c., Day 25): 782 ± 53 mm^3
Tumor volume (mm^3), Mean ± SEM (3 mg/kg qdx5 then 1 mg/kg qdx9 s.c., Day 0): 59 ± 3 mm^3
Tumor volume (mm^3), Mean ± SEM (3 mg/kg qdx5 then 1 mg/kg qdx9 s.c., Day 2): 72 ± 4 mm^3
Tumor volume (mm^3), Mean ± SEM (3 mg/kg qdx5 then 1 mg/kg qdx9 s.c., Day 4): 76 ± 3 mm^3
Tumor volume (mm^3), Mean ± SEM (3 mg/kg qdx5 then 1 mg/kg qdx9 s.c., Day 7): 80 ± 3 mm^3
Tumor volume (mm^3), Mean ± SEM (3 mg/kg qdx5 then 1 mg/kg qdx9 s.c., Day 9): 88 ± 6 mm^3
Tumor volume (mm^3), Mean ± SEM (3 mg/kg qdx5 then 1 mg/kg qdx9 s.c., Day 11): 113 ± 9 mm^3
Tumor volume (mm^3), Mean ± SEM (3 mg/kg qdx5 then 1 mg/kg qdx9 s.c., Day 14): 171 ± 12 mm^3
Tumor volume (mm^3), Mean ± SEM (3 mg/kg qdx5 then 1 mg/kg qdx9 s.c., Day 16): 245 ± 17 mm^3
Tumor volume (mm^3), Mean ± SEM (3 mg/kg qdx5 then 1 mg/kg qdx9 s.c., Day 18): 356 ± 27 mm^3
Tumor volume (mm^3), Mean ± SEM (3 mg/kg qdx5 then 1 mg/kg qdx9 s.c., Day 21): 565 ± 37 mm^3
Tumor volume (mm^3), Mean ± SEM (3 mg/kg qdx5 then 1 mg/kg qdx9 s.c., Day 23): 762 ± 62 mm^3
Tumor volume (mm^3), Mean ± SEM (3 mg/kg qdx5 then 1 mg/kg qdx9 s.c., Day 25): 1024 ± 75 mm^3
ILS (%) (Compound 1 1 mg/kg): 13.8%
MST (Compound 1 1 mg/kg): 33.0 days
ILS (%) (Compound 1 3/1 mg/kg): 19.0%
MST (Compound 1 3/1 mg/kg): 34.5 days
RTV at day 25 (Cpd. 1 1 mg/kg): 13.65 ± 1.13
T/C (%) (Cpd. 1 1 mg/kg): 46.10%
TGI (%) (Cpd. 1 1 mg/kg): 53.9%
Tumor Size (mm^3) at day 25, Mean ± SEM (Cpd. 1 1 mg/kg): 782 ± 53 mm^3
RTV at day 25 (Cpd. 1 3/1 mg/kg): 17.45 ± 0.83
T/C (%) (Cpd. 1 3/1 mg/kg): 58.95%
TGI (%) (Cpd. 1 3/1 mg/kg): 41.05%
Tumor Size (mm^3) at day 25, Mean ± SEM (Cpd. 1 3/1 mg/kg): 1024 ± 75 mm^3
